# Values quoted from earlier work, collected in article PMC2916017 (Journal of biomedical optics, 2009).
# Columns and labels:
# caspase-3 = biological target: T1, caspase-3 (Homo sapiens, UniProt P42574); settings: standard substrate, comparison value; no reference given
# T1 sequence (P42574 29-175 limits assumed): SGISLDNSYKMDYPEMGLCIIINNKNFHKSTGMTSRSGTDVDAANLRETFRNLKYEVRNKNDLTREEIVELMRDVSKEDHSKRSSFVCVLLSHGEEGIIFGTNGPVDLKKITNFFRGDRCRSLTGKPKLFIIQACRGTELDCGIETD
# T1 sequence (P42574 176-277 limits assumed): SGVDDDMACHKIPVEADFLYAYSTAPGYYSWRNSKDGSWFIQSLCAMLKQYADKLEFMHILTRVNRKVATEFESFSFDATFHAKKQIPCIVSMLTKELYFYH
# αvβ3–positive tumor = settings: previous work; specific activities 200–500 Ci/mmol
substance,measurement,setting,value
Ac-DEVD-AMC,Km,caspase-3,9.7 µM
same,kcat,caspase-3,0.75 s⁻¹
Ac-DEVD-pNA,Km,caspase-3,11 µM
^64Cu-DOTA-c(RGDyK) (head to tail),tumor visualization by small animal PET,αvβ3–positive tumor,receptor specific tumor accumulation allowed for αvβ3–positive tumor visualization by small animal PET
